Test results: PMC8273159, “In Vivo Behavior of the Antibacterial Peptide Cyclo[RRRWFW], Explored Using a 3-Hydroxychromone-Derived Fluorescent Amino Acid” (Frontiers in Chemistry, 2021)
≈ marks a conversion by molar mass, not a printed value. Numbered stars: 1 amine (or outer) side, 2 acyl side, 3 side chain; on linkers, the order of the positions; unused ones are H or OH. Square brackets hold non-standard residues; d marks the D form. Peptide text beside a SMILES is read from it. X1 = O=C([C@H](Cc1ccc2oc(-c3ccco3)c(O)c(=O)c2c1)N[*:1])[*:2]

Key:
[1] = Analytical C18 HPLC retention time as measure of overall hydrophobicity; format: physicochemical; details: chromatographic, C18 phase (Vydac), water/acetonitrile with 0.1% TFA, 1% B/min gradient, column 40°C; used to assess overall hydrophobicity
Description: The peptides were purified (>95%) by reversed-phase high-performance liquid chromatography (HPLC) employing C18 stationary phase columns (Vydac) and TFA-supplemented (0.1% v/v) water/acetonitrile gradients (4% eluent B/min) without temperature control on a Jasco HPLC system equipped with a diode array detector. Analytical chromatography was performed using the same stationary/mobile phase conditions, employing temperature control (column temperature 40°C) and shallower gradients (1% eluent B/min). All peptides and individual HPLC fractions were characterized by matrix-assisted laser desorption/ionization time-of-flight mass spectrometry (MALDI-TOF MS) using a Bruker Autoflex III instrument in positive reflector detection mode and with α-cyano-4-hydroxycinnamic acid as a matrix. From pure peptide powders, stock solutions were prepared (1 mg/ml) in 30% aqueous acetonitrile and stored at −80°C. For spectroscopy, imaging and bioactivity measurements, aliquots from these solutions were taken a day before the experiment, and peptide samples containing the necessary amount of peptide dry material were obtained by lyophilization overnight.

[2] = tested on: Bacillus spizizenii (DSM 347); format: cell-based; details: DSM 347, 20 h
Description: (§1) Bacillus spizizenii (DSM 347) and Escherichia coli (DSM 1116) were purchased from the German Collection of Microorganisms and Cell Cultures. The bacterial strains were maintained frozen at −80°C using a bacterial Cryobank System (Mast Diagnostica). To refresh bacterial cells on single glass beads, they were grown overnight in Müller-Hinton (MH) medium, and colonies were obtained by streaking on MH agar. Then, colony cells were used to inoculate MH broth up to OD = 0.02 and grew at 37°C overnight. These overnight cultures were used to inoculate the test culture, which was grown for 3–4 h until it reached exponential growth. HeLa (ECACC 93021013) and HEK293 (ECACC 85120602) cells were purchased from […] and were routinely cultured in Roswell Park Memorial Institute (RPMI) 1640 medium or Dulbecco’s modified Eagle medium (DMEM) supplemented with 10% fetal calf serum (FCS) and 1% penicillin/streptomycin, respectively. Cells were passaged every 2–3 days and used until passage 35. All animal cell types were cultured at 37 °C in a 5% CO2 atmosphere and tested negative for mycoplasma.
(§2) The bacteriostatic activity of the peptides was characterized by determining minimal culture growth inhibitory concentrations (MICs) in planktonic cultures. Serial twofold dilutions of each peptide (in-well concentration range: 128 μg/ml to […]) were prepared in MH broth and aliquoted into round-bottom 96-well microtiter plates (Sarstedt). Each well was inoculated with a standardized inoculum to achieve a final test concentration of approximately 10^6 cells/ml. […] The measurements were repeated twice with three replicates each time.

[3] = tested on: Escherichia coli (DSM 1116); format: cell-based; details: DSM 1116, 20 h
Description: as §1, §2

[4] = tested on: human erythrocyte suspension; assay: Hemolysis assay (hemoglobin release); format: cell-based; details: Tris-HCl pH 7.6, 37°C, 30 min
Excerpt: All chemicals were purchased from Sigma-Aldrich, Iris Biotech or Biosolve and were used without further purification. Ultrapure deionized (MilliQ, Millipore) water was used to prepare aqueous solutions and mixtures. Solvents for peptide purification and optical spectroscopy were of HPLC grade and were degassed before use. Culture media and supplements for animal cells were from Thermo Fisher, those for bacterial culturing were from Becton, and those for zebrafish embryo handling were freshly prepared. Citrate phosphate dextrose-stabilized blood bags with erythrocyte suspensions of healthy donors for hemolysis assays were obtained from the blood bank of the Karlsruhe municipal hospital.
Hemolytic activity was examined using the same serial twofold dilution concentrations as for the MIC assay. […] The tubes were centrifuged at 13,000 rpm for 10 min to pellet the cells, and the absorbance at 540 nm was recorded against a negative control (cells without peptide, accounting for autohaemolysis). The lysis percentage was calculated relative to lysis levels induced by 1% (v/v) Triton X-100. The absorbance measurements were repeated five times, and the averaged values were used.

SMILES	RT (apparent retention time) [1] [min]	MIC B. spizizenii [2] [µM]	MIC E. coli [3] [µM]	death of erythrocytes (hemolysis) ([4]; 30 µM peptide, absorbance 540 nm, relative to 1% Triton X-100, five readings averaged) [%]	hemolytic activity, comparison in words ([4]; human erythrocytes, relative to 1% Triton X-100)
N=C(N)NCCC[C@@H]1NC(=O)[C@H](CCCNC(=N)N)NC(=O)[C@H](Cc2ccc3oc(-c4ccco4)c(O)c(=O)c3c2)NC(=O)[C@H](Cc2ccccc2)NC(=O)[C@H](Cc2c[nH]c3ccccc23)NC(=O)[C@H](CCCNC(=N)N)NC1=O [cRW-W^3/FHC] (cyclo(F[X1]RRRW))	11	14.6 (≈ 16 µg/mL)	29.1 (≈ 32 µg/mL)		
N=C(N)NCCC[C@@H]1NC(=O)[C@H](CCCNC(=N)N)NC(=O)[C@H](Cc2c[nH]c3ccccc23)NC(=O)[C@H](Cc2ccccc2)NC(=O)[C@H](Cc2c[nH]c3ccccc23)NC(=O)[C@H](CCCNC(=N)N)NC1=O [cWFW, cyclo[RRRWFW]] (cyclo(FWRRRW))	9	4.0 (≈ 3.95 µg/mL)	8.1 (≈ 8 µg/mL)		
N=C(N)NCCC[C@@H]1NC(=O)[C@H](CCCNC(=N)N)NC(=O)[C@H](Cc2c[nH]c3ccccc23)NC(=O)[C@H](Cc2ccccc2)NC(=O)[C@H](Cc2ccc3oc(-c4ccco4)c(O)c(=O)c3c2)NC(=O)[C@H](CCCNC(=N)N)NC1=O [cRW-W^1/FHC] (cyclo(FWRRR[X1]))		14.6 (≈ 16 µg/mL)	29.1 (≈ 32 µg/mL)		
N=C(N)NCCC[C@@H]1NC(=O)[C@H](CCCNC(=N)N)NC(=O)[C@H](Cc2c[nH]c3ccccc23)NC(=O)[C@H](Cc2ccc3oc(-c4ccco4)c(O)c(=O)c3c2)NC(=O)[C@H](Cc2c[nH]c3ccccc23)NC(=O)[C@H](CCCNC(=N)N)NC1=O [cRW-F^2/FHC] (cyclo(RRRW[X1]W))		14.0 (≈ 15.9 µg/mL)	28.1 (≈ 32 µg/mL)	> 50	the most hemolytic
